# Target: human recombinant ATX (Homo sapiens, UniProt Q13822)
# Assay: Autotaxin (ATX) activity Quanta Red assay
# Assay type: biochemical
# Conditions: Table 2: additional compounds tested for ATX activity (Quanta Red Assay); read-out: Activity
# Method in brief: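 Recombinant human ATX reaction stopped after 2 h with Quanta Red stop solution; fluorescence read at […]. Controls with DMSO, with and without ATX; IC50 in duplicate.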
row,SMILES,IC50 [nM]
1,"COc1ccc(Cn2c(CCC(=O)NCc3ccc(C)cc3)nc3cccnc32)cc1 [Example 220, 3-[3-(4-Methoxy-benzyl)-3H-imidazo[4,5-b]pyridin-2-yl]-N-(4-methyl-benzyl)-propionamide]",125
2,"O=C(CCc1nc2cccnc2n1Cc1cccs1)NCc1ccc(F)cc1 [Example 224, N-(4-Fluoro-benzyl)-3-(3-thiophen-2-ylmethyl-3H-imidazo[4,5-b]pyridin-2-yl)-propionamide]",685
3,"Cc1ccc(CNC(=O)CCc2nc3cccnc3n2Cc2ccccc2)cc1 [Example 235, 3-(3-Benzyl-3H-imidazo[4,5-b]pyridin-2-yl)-N-(4-methyl-benzyl)-propionamide]",627

# Second part, the compound after the results:
row,IC50 [nM],SMILES
1,324,"O=C(CCc1nc2cccnc2n1Cc1ccccc1)NCc1ccc(F)cc1 [Example 223, 3-(3-Benzyl-3H-imidazo[4,5-b]pyridin-2-yl)-N-(4-fluoro-benzyl)-propionamide]"
2,89,"COc1ccc(Cn2c(CCC(=O)NCc3ccc(F)cc3)nc3cccnc32)cc1 [Example 219, N-(4-Fluoro-benzyl)-3-[3-(4-methoxy-benzyl)-3H-imidazo[4,5-b]pyridin-2-yl]-propionamide]"

# Same assay, conditions: human recombinant ATX 0.8 μg/mL, 2 hours at room temperature, IC50 determined in duplicate; read-out: Activity (ATX activity, Quanta Red assay; IC50)
row,IC50 [nM],SMILES
1,2880,"C[C@H](NC(=O)CS(=O)(=O)c1nc2cccnc2n1Cc1ccc(OC(F)(F)F)cc1)c1ccc(F)cc1 [Example 150, N—[(S)-1-(4-fluoro-phenyl)-ethyl]-2-[3-(4-trifluoromethoxy-benzyl)-3H-imidazo[4,5-b]pyridine-2-sulfonyl]-acetamide]"
2,855,"O=C(CCc1nc2cccnc2n1Cc1ccccc1)NCc1cccs1 [Example 3, 3-(3-Benzyl-3H-imidazo[4,5-b]pyridin-2-yl)-N-thiophen-2-ylmethyl-propionamide]"
3,39,"C[C@H](NC(=O)COc1nc2cccnc2n1Cc1ccc(F)cc1)c1ccc(F)cc1 [Example 153, 2-[3-(4-fluoro-benzyl)-3H-imidazo[4,5-b]pyridin-2-yloxy]-N—[(S)-1-(4-fluoro-phenyl)-ethyl]-acetamide]"

# Same assay, conditions: read-out: Activity (ATX activity, Quanta Red assay; IC50)
row,SMILES,IC50 [nM]
1,"O=C(CCc1nc2ccncc2n1Cc1ccc(OC(F)(F)F)cc1)NCc1ccc(F)cc1 [Example 133, N-(4-Fluoro-benzyl)-3-[3-(4-trifluoromethoxy-benzyl)-3H-imidazo[4,5-c]pyridin-2-yl]-propionamide]",52
2,"C[C@H](NC(=O)CCc1nc2cccnc2n1Cc1ccc(OC(F)(F)F)cc1)c1ccccn1 [Example 29, N-((S)-1-Pyridin-2-yl-ethyl)-3-[3-(4-trifluoromethoxy-benzyl)-3H-imidazo[4,5-b]pyridin-2-yl]-propionamide]",5
3,"O=C(CSc1nc2cccnc2n1Cc1ccc(OC(F)(F)F)cc1)N[C@@H](CO)c1ccccc1 [Example 142, N-((R)-2-Hydroxy-1-phenyl-ethyl)-2-[3-(4-trifluoromethoxy-benzyl)-3H-imidazo[4,5-b]pyridin-2-ylsulfanyl]-acetamide]",1
4,"Cc1ccc2nc(CCC(=O)N[C@@H](C)c3ccc(F)cc3)n(Cc3ccc(F)cc3)c2n1 [Example 121, 3-[3-(4-fluoro-benzyl)-5-methyl-3H-imidazo[4,5-b]pyridin-2-yl]-N—[(S)-1-(4-fluoro-phenyl)-ethyl]-propionamide]",269
5,"O=C(CCc1nc2cccnc2n1Cc1cccc(OC(F)(F)F)c1)NCc1cccc(OC(F)(F)F)c1 [Example 6, N-(3-Trifluoromethoxy-benzyl)-3-[3-(3-trifluoromethoxy-benzyl)-3H-imidazo[4,5-b]pyridin-2-yl]-propionamide]",476
6,"CN(C)CCCOc1ccc(CNC(=O)CCc2nc3ccncc3n2Cc2ccc(OC(F)(F)F)cc2)cc1 [Example 128, N-[4-(3-Dimethylamino-propoxy)-benzyl]-3-[3-(4-trifluoromethoxy-benzyl)-3H-imidazo[4,5-c]pyridin-2-yl]-propionamide]",17
7,"CN(C)CCOc1ccc(CNC(=O)CCc2nc3cccnc3n2Cc2ccc(OC(F)(F)F)cc2)cc1 [Example 19, N-[4-(2-Dimethylamino-ethoxy)-benzyl]-3-[3-(4-trifluoromethoxy-benzyl)-3H-imidazo[4,5-b]pyridin-2-yl]-propionamide]",4
8,"CN(C)c1ccc(CNC(=O)CCc2nc3cccnc3n2Cc2ccc(F)cc2)cc1 [Example 58, N-(4-Dimethylamino-benzyl)-3-[3-(4-fluoro-benzyl)-3H-imidazo[4,5-b]pyridin-2-yl]-propionamide]",61
9,"C[C@H](NC(=O)CCc1nc2cccnc2n1Cc1ccc(OC(F)(F)F)cc1)c1ccc(N2CCN(C)CC2)cc1 [Example 167, N—{(S)-1-[4-(4-methyl-piperazin-1-yl)-phenyl]-ethyl}-3-[3-(4-trifluoromethoxy-benzyl)-3H-imidazo[4,5-b]pyridin-2-yl]-propionamide]",1
10,"CC(C)(C)OC(=O)N1CCC(CNC(=O)CCc2nc3cccnc3n2Cc2ccc(OC(F)(F)F)cc2)CC1 [Example 51, 4-({3-[3-(4-Trifluoromethoxy-benzyl)-3H-imidazo[4,5-b]pyridin-2-yl]-propionylamino}-methyl)-piperidine-1-carboxylic acid tert-butyl ester]",22
11,"C[C@H](NC(=O)CCc1nc2cccnc2n1Cc1ccc(OC(F)(F)F)cc1)c1ccc(NC2CCN(C)CC2)cc1 [Example 173, N-{(S)-1-[4-(1-Methyl-piperidin-4-ylamino)-phenyl]-ethyl}-3-[3-(4-trifluoromethoxy-benzyl)-3H-imidazo[4,5-b]pyridin-2-yl]-propionamide]",3
12,"CC(Sc1nc2cccnc2n1Cc1ccc(OC(F)(F)F)cc1)C(=O)N[C@@H](CO)c1ccccc1 (stereo partly drawn) [Example 154, N—((R)-2-hydroxy-1-phenyl-ethyl)-2-[3-(4-trifluoromethoxy-benzyl)-3H-imidazo[4,5-b]pyridin-2-ylsulfanyl]-propionamide]",11
13,"COc1ccc(Cn2c(CCC(=O)N(C)Cc3ccc(F)cc3)nc3cccnc32)cc1 [Example 119, N-(4-Fluoro-benzyl)-3-[3-(4-methoxy-benzyl)-3H-imidazo[4,5-b]pyridin-2-yl]-N-methyl-propionamide]",631

# Other lines, results leading:
row,IC50 [nM],SMILES
1,6,"C[C@H](NC(=O)CCc1nc2cccnc2n1Cc1ccc(F)cc1)c1ccccc1 [Example 87, 3-[3-(4-Fluoro-benzyl)-3H-imidazo[4,5-b]pyridin-2-yl]-N-((S)-1-phenyl-ethyl)-propionamide]"
2,339,"COc1cc(OC(F)(F)F)ccc1CNC(=O)CCc1nc2cccnc2n1Cc1ccc(F)c(F)c1 [Example 74, 3-[3-(3,4-Difluoro-benzyl)-3H-imidazo[4,5-b]pyridin-2-yl]-N-(2-methoxy-4-trifluoromethoxy-benzyl)-propionamide]"
3,3,C[C@H](NC(=O)CCc1nc2cccnc2n1Cc1ccc(F)c(F)c1)c1ccc(N2CCC(N(C)C)C2)cc1 (some centres unmarked) [Example 177]
4,139,"CN(C)c1ccc(CNC(=O)CCc2nc3cccnc3n2Cc2ccc(F)c(F)c2)cc1 [Example 63, 3-[3-(3,4-Difluoro-benzyl)-3H-imidazo[4,5-b]pyridin-2-yl]-N-(4-dimethylamino-benzyl)-propionamide]"
5,373,"COc1ccc(Cn2c(CCC(=O)NCc3cccc(F)c3)nc3cccnc32)cc1 [Example 117, N-(3-Fluoro-benzyl)-3-[3-(4-methoxy-benzyl)-3H-imidazo[4,5-b]pyridin-2-yl]-propionamide]"
6,844,"C[C@H](NC(=O)CCc1nc2cccnc2n1Cc1ccc(OCc2ccccc2)cc1)c1ccc(F)cc1 [Example 80, 3-[3-(4-Benzyloxy-benzyl)-3H-imidazo[4,5-b]pyridin-2-yl]-N-[(S)-1-(4-fluoro-phenyl)-ethyl]-propionamide]"
7,63,"O=C(CCc1nc2cccnc2n1Cc1ccc(F)c(F)c1)N[C@@H]1c2ccccc2C[C@H]1O [Example 59, 3-[3-(3,4-Difluoro-benzyl)-3H-imidazo[4,5-b]pyridin-2-yl]-N-((1R,2R)-2-hydroxy-indan-1-yl)-propionamide]"
8,17,"Cc1cnc2c(c1)nc(CCC(=O)N[C@@H](C)c1ccc(Cl)cc1)n2Cc1ccc(F)cc1 [Example 213, N-[(S)-1-(4-Chloro-phenyl)-ethyl]-3-[3-(4-fluoro-benzyl)-6-methyl-3H-imidazo[4,5-b]pyridin-2-yl]-propionamide]"
9,3,"C[C@H](NC(=O)CCc1nc2cccnc2n1Cc1ccc(F)c(F)c1)c1ccc(Br)cc1 [Example 17, N-[(S)-1-(4-Bromo-phenyl)-ethyl]-3-[3-(3,4-difluoro-benzyl)-3H-imidazo[4,5-b]pyridin-2-yl]-propionamide]"
10,37,"O=C(CCc1nc2cccnc2n1Cc1ccc(F)c(F)c1)N[C@H](Cc1ccccc1)C(=O)O [Example 198, (R)-2-{3-[3-(3,4-Difluoro-benzyl)-3H-imidazo[4,5-b]pyridin-2-yl]-propionylamino}-3-phenyl-propionic acid]"
11,21,"C[C@@H](NC(=O)CCc1nc2cccnc2n1Cc1ccc(OC(F)(F)F)cc1)c1ccc(Cl)cc1 [Example 49, N-[(R)-1-(4-Chloro-phenyl)-ethyl]-3-[3-(4-trifluoromethoxy-benzyl)-3H-imidazo[4,5-b]pyridin-2-yl]-propionamide]"
12,12,"C[C@H](NC(=O)CCc1nc2cccnc2n1Cc1ccc(F)c(F)c1)c1ccc(N2CCN[C@@H](C)C2)cc1 [Example 184, 3-[3-(3,4-Difluoro-benzyl)-3H-imidazo[4,5-b]pyridin-2-yl]-N-{(S)-1-[4-((S)-3-methyl-piperazin-1-yl)-phenyl]-ethyl}-propionamide]"
13,243,"O=C(CCc1nc2cccnc2n1Cc1ccc(F)c(F)c1)NCC1CCCCC1 [Example 71, N-Cyclohexylmethyl-3-[3-(3,4-difluoro-benzyl)-3H-imidazo[4,5-b]pyridin-2-yl]-propionamide]"
14,7,"O=C(CCc1nc2cccnc2n1Cc1ccc(F)c(F)c1)NC(CO)c1ccc(Cl)cc1 (centres unmarked) [Example 35, N-[1-(4-Chloro-phenyl)-2-hydroxy-ethyl]-3-[3-(3,4-difluoro-benzyl)-3H-imidazo[4,5-b]pyridin-2-yl]-propionamide]"
